In patent publication US8354269B2 (priority 2008, dated 2013):
Where two headings read alike, the source gives them in different places.

What was measured:
[1] = tested on: Clostridium ljungdahlii DSM13528
[2] = tested on: Clostridium autoethanogenum DSM10061
Method: High Performance Liquid Chromatography (HPLC) was used to characterize the level of substrates and products such as for acetate, ethanol, fructose, xylose and pyruvate. HPLC System Agilent 1100 Series. Mobile Phase: 0.0025N Sulphuric Acid. Flow and pressure: 0.800 mL/min. Column: Alltech IOA; Catalog #9648, 150×6.5 mm, particle size 5 μm. Temperature of column: 60° C. Detector: Refractive Index. Temperature of detector: 45° C.
Method for sample preparation: 400 μL of sample+50 μL of 0.15M ZnSO4+50 μL of 0.15M Ba(OH)2 into an Eppendorf tube. Centrifuge 10 min at 12,000 rpm, 4° C. Transfer 200 μL supernatant into an HPLC vial and inject into the HPLC instrument 5 μL.
The serum bottles were charged with CO containing gas (2% H2; 30% N2; 47% CO; 21% CO2) to an overpressure of 30 psi. The gas was purged and refreshed at time=54 h. Growth was monitored by measuring the optical density at 600 nm (OD600nm) and metabolites were detected by HPLC.

In the case of `[Cl][Ni][Cl]` [Nickel, nickel chloride], the Ethanol ([1]; Nickel 200 μM, 0 h) is reported as 0.23 ± 0.02 g/L, the OD600 nm ([1]; Nickel 200 μM, 0 h) is reported as 0.010 ± 0.001 and the Acetate ([1]; Nickel 200 μM, 30 h) is reported as 0.07 ± 0.07 g/L. For the same molecule, the Ethanol ([1]; Nickel 200 μM, 30 h) was 0.23 ± 0.02 g/L, the OD600 nm ([1]; Nickel 200 μM, 30 h) was 0.057 ± 0.003 and the Acetate ([1]; Nickel 200 μM, 54 h) was 0.24 ± 0.10 g/L. It also gave an Ethanol ([1]; Nickel 200 μM, 54 h) of 0.27 ± 0.03 g/L, an OD600 nm ([1]; Nickel 200 μM, 54 h) of 0.163 ± 0.053 and an Acetate ([1]; Nickel 200 μM, 102 h) of 0.38 ± 0.10 g/L. It also gave an Ethanol ([1]; Nickel 200 μM, 102 h) of 0.57 ± 0.11 g/L, an OD600 nm ([1]; Nickel 200 μM, 102 h) of 0.273 ± 0.001 and an Acetate ([1]; Nickel 200 μM, 127 h) of 0.77 ± 0.24 g/L. For the same molecule, the Ethanol ([1]; Nickel 200 μM, 127 h) was 0.58 ± 0.07 g/L, the OD600 nm ([1]; Nickel 200 μM, 127 h) was 0.284 ± 0.010 and the Ethanol ([1]; Nickel 400 μM, 0 h) was 0.22 ± 0.02 g/L. The OD600 nm ([1]; Nickel 400 μM, 0 h) was 0.011 ± 0.002, the Ethanol ([1]; Nickel 400 μM, 30 h) was 0.22 ± 0.01 g/L and the OD600 nm ([1]; Nickel 400 μM, 30 h) was 0.097 ± 0.024. For the same molecule, the Acetate ([1]; Nickel 400 μM, 54 h) was 0.15 ± 0.04 g/L, the Ethanol ([1]; Nickel 400 μM, 54 h) was 0.21 ± 0.02 g/L and the OD600 nm ([1]; Nickel 400 μM, 54 h) was 0.114 ± 0.030. It also gave an Acetate ([1]; Nickel 400 μM, 102 h) of 0.20 ± 0.01 g/L, an Ethanol ([1]; Nickel 400 μM, 102 h) of 0.53 ± 0.31 g/L and an OD600 nm ([1]; Nickel 400 μM, 102 h) of 0.199 ± 0.103. For the same molecule, the Acetate ([1]; Nickel 400 μM, 127 h) was 0.30 ± 0.19 g/L, the Ethanol ([1]; Nickel 400 μM, 127 h) was 0.77 ± 0.24 g/L and the OD600 nm ([1]; Nickel 400 μM, 127 h) was 0.310 ± 0.017. For the same molecule, the Ethanol ([1]; Nickel 700 μM, 0 h) was 0.25 ± 0.01 g/L, the OD600 nm ([1]; Nickel 700 μM, 0 h) was 0.009 ± 0.001 and the Ethanol ([1]; Nickel 700 μM, 30 h) was 0.24 ± 0.01 g/L. For the same molecule, the OD600 nm ([1]; Nickel 700 μM, 30 h) was 0.235 ± 0.076, the Acetate ([1]; Nickel 700 μM, 54 h) was 0.21 ± 0.05 g/L and the Ethanol ([1]; Nickel 700 μM, 54 h) was 0.35 ± 0.11 g/L. It also gave an OD600 nm ([1]; Nickel 700 μM, 54 h) of 0.427 ± 0.182, an Acetate ([1]; Nickel 700 μM, 102 h) of 0.24 ± 0.03 g/L and an Ethanol ([1]; Nickel 700 μM, 102 h) of 0.73 ± 0.01 g/L. For the same molecule, the OD600 nm ([1]; Nickel 700 μM, 102 h) was 0.579 ± 0.062, the Acetate ([1]; Nickel 700 μM, 127 h) was 0.34 ± 0.16 g/L and the Ethanol ([1]; Nickel 700 μM, 127 h) was 0.82 ± 0.03 g/L. It also gave an OD600 nm ([1]; Nickel 700 μM, 127 h) of 0.528 ± 0.054, an Ethanol ([1]; Nickel 1000 μM, 0 h) of 0.24 ± 0.01 g/L and an OD600 nm ([1]; Nickel 1000 μM, 0 h) of 0.011 ± 0.001. It also gave an Ethanol ([1]; Nickel 1000 μM, 30 h) of 0.26 ± 0.01 g/L, an OD600 nm ([1]; Nickel 1000 μM, 30 h) of 0.549 ± 0.049 and an Acetate ([1]; Nickel 1000 μM, 54 h) of 0.23 ± 0.02 g/L. The Ethanol ([1]; Nickel 1000 μM, 54 h) was 0.42 ± 0.14 g/L, the OD600 nm ([1]; Nickel 1000 μM, 54 h) was 0.691 ± 0.017 and the Acetate ([1]; Nickel 1000 μM, 102 h) was 0.31 ± 0.03 g/L. For the same molecule, the Ethanol ([1]; Nickel 1000 μM, 102 h) was 0.68 ± 0.26 g/L, the OD600 nm ([1]; Nickel 1000 μM, 102 h) was 0.862 ± 0.324 and the Acetate ([1]; Nickel 1000 μM, 127 h) was 0.46 ± 0.03 g/L. The Ethanol ([1]; Nickel 1000 μM, 127 h) was 0.98 ± 0.11 g/L, the OD600 nm ([1]; Nickel 1000 μM, 127 h) was 0.853 ± 0.329 and the Ethanol ([2]; Nickel 200 μM, 0 h) was 0.22 ± 0.02 g/L. The OD600 nm ([2]; Nickel 200 μM, 0 h) was 0.009 ± 0.001, the Ethanol ([2]; Nickel 200 μM, 30 h) was 0.22 ± 0.03 g/L and the OD600 nm ([2]; Nickel 200 μM, 30 h) was 0.038 ± 0.010. For the same molecule, the Acetate ([2]; Nickel 200 μM, 54 h) was 0.12 ± 0.02 g/L, the Ethanol ([2]; Nickel 200 μM, 54 h) was 0.23 ± 0.03 g/L and the OD600 nm ([2]; Nickel 200 μM, 54 h) was 0.052 ± 0.022. For the same molecule, the Acetate ([2]; Nickel 200 μM, 102 h) was 0.83 ± 0.53 g/L, the Ethanol ([2]; Nickel 200 μM, 102 h) was 0.23 ± 0.01 g/L and the OD600 nm ([2]; Nickel 200 μM, 102 h) was 0.223 ± 0.141. The Acetate ([2]; Nickel 200 μM, 127 h) was 1.48 ± 0.54 g/L, the Ethanol ([2]; Nickel 200 μM, 127 h) was 0.30 ± 0.19 g/L and the OD600 nm ([2]; Nickel 200 μM, 127 h) was 0.333 ± 0.131. For the same molecule, the Ethanol ([2]; Nickel 400 μM, 0 h) was 0.22 ± 0.02 g/L, the OD600 nm ([2]; Nickel 400 μM, 0 h) was 0.010 ± 0.001 and the Ethanol ([2]; Nickel 400 μM, 30 h) was 0.22 ± 0.02 g/L. For the same molecule, the OD600 nm ([2]; Nickel 400 μM, 30 h) was 0.065 ± 0.002, the Acetate ([2]; Nickel 400 μM, 54 h) was 0.18 ± 0.10 g/L and the Ethanol ([2]; Nickel 400 μM, 54 h) was 0.21 ± 0.02 g/L. It also gave an OD600 nm ([2]; Nickel 400 μM, 54 h) of 0.087 ± 0.011, an Acetate ([2]; Nickel 400 μM, 102 h) of 1.05 ± 0.85 g/L and an Ethanol ([2]; Nickel 400 μM, 102 h) of 0.68 ± 0.41 g/L. The OD600 nm ([2]; Nickel 400 μM, 102 h) was 0.337 ± 0.129, the Acetate ([2]; Nickel 400 μM, 127 h) was 1.44 ± 0.83 g/L and the Ethanol ([2]; Nickel 400 μM, 127 h) was 0.68 ± 0.21 g/L. For the same molecule, the OD600 nm ([2]; Nickel 400 μM, 127 h) was 0.452 ± 0.200, the Ethanol ([2]; Nickel 700 μM, 0 h) was 0.23 ± 0.03 g/L and the OD600 nm ([2]; Nickel 700 μM, 0 h) was 0.011 ± 0.001. It also gave an Ethanol ([2]; Nickel 700 μM, 30 h) of 0.24 ± 0.02 g/L, an OD600 nm ([2]; Nickel 700 μM, 30 h) of 0.238 ± 0.023 and an Acetate ([2]; Nickel 700 μM, 54 h) of 0.25 ± 0.01 g/L. It also gave an Ethanol ([2]; Nickel 700 μM, 54 h) of 0.25 ± 0.03 g/L, an OD600 nm ([2]; Nickel 700 μM, 54 h) of 0.292 ± 0.013 and an Acetate ([2]; Nickel 700 μM, 102 h) of 0.94 ± 0.14 g/L. The Ethanol ([2]; Nickel 700 μM, 102 h) was 0.73 ± 0.05 g/L, the OD600 nm ([2]; Nickel 700 μM, 102 h) was 0.714 ± 0.060 and the Acetate ([2]; Nickel 700 μM, 127 h) was 0.95 ± 0.16 g/L. For the same molecule, the Ethanol ([2]; Nickel 700 μM, 127 h) was 0.72 ± 0.03 g/L, the OD600 nm ([2]; Nickel 700 μM, 127 h) was 0.620 ± 0.021 and the Ethanol ([2]; Nickel 1000 μM, 0 h) was 0.29 ± 0.04 g/L. For the same molecule, the OD600 nm ([2]; Nickel 1000 μM, 0 h) was 0.010 ± 0.001, the Ethanol ([2]; Nickel 1000 μM, 30 h) was 0.28 ± 0.02 g/L and the OD600 nm ([2]; Nickel 1000 μM, 30 h) was 0.268 ± 0.080. For the same molecule, the Acetate ([2]; Nickel 1000 μM, 54 h) was 0.38 ± 0.01 g/L, the Ethanol ([2]; Nickel 1000 μM, 54 h) was 0.26 ± 0.03 g/L and the OD600 nm ([2]; Nickel 1000 μM, 54 h) was 0.389 ± 0.071. The Acetate ([2]; Nickel 1000 μM, 102 h) was 1.57 ± 0.21 g/L, the Ethanol ([2]; Nickel 1000 μM, 102 h) was 1.02 ± 0.09 g/L and the OD600 nm ([2]; Nickel 1000 μM, 102 h) was 0.720 ± 0.105. It also gave an Acetate ([2]; Nickel 1000 μM, 127 h) of 1.78 ± 0.11 g/L, an Ethanol ([2]; Nickel 1000 μM, 127 h) of 0.99 ± 0.11 g/L and an OD600 nm ([2]; Nickel 1000 μM, 127 h) of 0.674 ± 0.098.
